# Experimental data: ChEMBL document CHEMBL5465560, “Selectivity Literature for EUbOPEN Chemogenomic Library” (2024)
# Substitutions are numbered along the chain they refer to.
# Key:
# Details in all cases: at 10 µM
# [1] = molecular target: Receptor-type tyrosine-protein kinase FLT3 (Homo sapiens) (UniProt P36888); assay: (§1) Selectivity interaction (KinomeScan (DiscoverX)) EUB0000666a FLT3
# [2] = system: T1, Receptor-type tyrosine-protein kinase FLT3 (Homo sapiens), P36888 [N841I]; assay: as §1
# T1 sequence (whole entry): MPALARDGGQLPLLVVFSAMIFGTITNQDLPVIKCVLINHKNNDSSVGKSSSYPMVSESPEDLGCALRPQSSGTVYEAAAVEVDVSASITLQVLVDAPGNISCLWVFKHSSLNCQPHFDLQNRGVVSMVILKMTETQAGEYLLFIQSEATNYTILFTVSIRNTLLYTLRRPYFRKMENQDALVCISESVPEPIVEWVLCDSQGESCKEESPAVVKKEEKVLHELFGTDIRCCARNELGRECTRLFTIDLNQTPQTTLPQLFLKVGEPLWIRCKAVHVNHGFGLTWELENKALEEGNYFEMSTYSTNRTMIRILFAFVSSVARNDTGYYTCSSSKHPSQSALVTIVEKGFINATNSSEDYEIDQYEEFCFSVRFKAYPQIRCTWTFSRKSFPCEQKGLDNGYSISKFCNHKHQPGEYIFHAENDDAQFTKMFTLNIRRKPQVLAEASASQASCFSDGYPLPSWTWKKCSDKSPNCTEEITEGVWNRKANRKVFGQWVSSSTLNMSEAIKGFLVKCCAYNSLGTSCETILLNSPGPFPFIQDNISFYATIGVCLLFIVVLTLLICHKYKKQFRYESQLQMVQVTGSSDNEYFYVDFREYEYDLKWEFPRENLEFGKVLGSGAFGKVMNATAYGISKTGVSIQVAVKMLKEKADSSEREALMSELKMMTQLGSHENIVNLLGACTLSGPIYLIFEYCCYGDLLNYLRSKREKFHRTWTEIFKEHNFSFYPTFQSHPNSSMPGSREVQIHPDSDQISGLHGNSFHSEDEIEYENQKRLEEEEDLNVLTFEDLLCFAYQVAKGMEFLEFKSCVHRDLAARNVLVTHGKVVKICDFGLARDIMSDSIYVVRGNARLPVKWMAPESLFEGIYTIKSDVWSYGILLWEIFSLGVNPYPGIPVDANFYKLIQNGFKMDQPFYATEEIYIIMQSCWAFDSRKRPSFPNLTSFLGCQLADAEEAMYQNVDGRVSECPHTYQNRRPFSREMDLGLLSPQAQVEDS
# [3] = system: T2, Receptor-type tyrosine-protein kinase FLT3 (Homo sapiens), P36888 [R834Q]; assay: as §1
# T2 sequence (whole entry): T1 sequence (whole entry) with R834Q, I841N
# [4] = molecular target: Protein kinase C delta type (Homo sapiens) (UniProt Q05655); assay: Selectivity interaction (KinomeScan (DiscoverX)) EUB0000229b PRKCD
# [5] = system: Mast/stem cell growth factor receptor Kit (Homo sapiens), P10721 [A829P]; assay: (§2) Selectivity interaction (KinomeScan (DiscoverX)) EUB0000655a KIT
# [6] = system: Mast/stem cell growth factor receptor Kit (Homo sapiens), P10721 [D816H]; assay: as §2
# [7] = system: Mast/stem cell growth factor receptor Kit (Homo sapiens), P10721 [L576P]; assay: as §2
# [8] = system: Mast/stem cell growth factor receptor Kit (Homo sapiens), P10721 [V559D,T670I]; assay: as §2
# [9] = system: Mast/stem cell growth factor receptor Kit (Homo sapiens), P10721 [V559D,V654A]; assay: as §2
# [10] = molecular target: Mast/stem cell growth factor receptor Kit (Homo sapiens, UniProt P10721); assay: as §2
# Chain of Mast/stem cell growth factor receptor Kit (P10721 whole entry): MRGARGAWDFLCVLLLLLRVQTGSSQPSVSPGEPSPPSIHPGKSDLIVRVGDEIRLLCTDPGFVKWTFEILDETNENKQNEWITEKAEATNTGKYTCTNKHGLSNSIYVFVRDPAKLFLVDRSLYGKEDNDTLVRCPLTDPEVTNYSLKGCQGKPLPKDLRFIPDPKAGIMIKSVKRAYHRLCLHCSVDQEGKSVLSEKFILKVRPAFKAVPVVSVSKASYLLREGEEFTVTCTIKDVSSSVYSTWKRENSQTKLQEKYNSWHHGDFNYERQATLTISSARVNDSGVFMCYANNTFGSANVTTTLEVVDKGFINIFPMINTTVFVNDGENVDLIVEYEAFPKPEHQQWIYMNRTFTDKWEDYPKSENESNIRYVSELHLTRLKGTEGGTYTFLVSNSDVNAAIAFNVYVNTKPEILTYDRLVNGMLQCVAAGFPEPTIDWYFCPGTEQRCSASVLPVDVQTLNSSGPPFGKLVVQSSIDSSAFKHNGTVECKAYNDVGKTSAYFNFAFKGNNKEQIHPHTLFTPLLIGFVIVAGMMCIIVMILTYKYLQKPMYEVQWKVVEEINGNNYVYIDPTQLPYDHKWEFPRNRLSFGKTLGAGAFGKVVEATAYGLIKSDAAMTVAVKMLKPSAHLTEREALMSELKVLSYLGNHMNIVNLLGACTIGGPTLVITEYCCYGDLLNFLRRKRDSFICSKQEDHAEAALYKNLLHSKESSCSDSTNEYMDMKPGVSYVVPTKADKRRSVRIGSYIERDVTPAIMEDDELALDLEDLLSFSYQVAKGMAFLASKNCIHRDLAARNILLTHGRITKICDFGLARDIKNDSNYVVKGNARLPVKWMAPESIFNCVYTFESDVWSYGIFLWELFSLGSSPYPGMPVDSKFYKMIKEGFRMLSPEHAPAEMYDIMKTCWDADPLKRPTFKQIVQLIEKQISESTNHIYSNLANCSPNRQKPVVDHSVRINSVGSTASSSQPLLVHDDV
# Chain of Mast/stem cell growth factor receptor Kit (Homo sapiens), P10721 [D816H] (P10721 whole entry D816H): as the sequence (P10721 whole entry) above, with D816H counted along it
# Chain of Mast/stem cell growth factor receptor Kit (Homo sapiens), P10721 [V559D,T670I] (P10721 whole entry V559D/T670I): as the sequence (P10721 whole entry) above, with V559D, T670I counted along it
# Chain of Mast/stem cell growth factor receptor Kit (Homo sapiens), P10721 [A829P] (P10721 whole entry A829P): as the sequence (P10721 whole entry) above, with A829P counted along it
# Chain of Mast/stem cell growth factor receptor Kit (Homo sapiens), P10721 [V559D,V654A] (P10721 whole entry V559D/V654A): as the sequence (P10721 whole entry) above, with V559D, V654A counted along it
# Chain of Protein kinase C delta type (Homo sapiens) (Q05655 whole entry, looked up): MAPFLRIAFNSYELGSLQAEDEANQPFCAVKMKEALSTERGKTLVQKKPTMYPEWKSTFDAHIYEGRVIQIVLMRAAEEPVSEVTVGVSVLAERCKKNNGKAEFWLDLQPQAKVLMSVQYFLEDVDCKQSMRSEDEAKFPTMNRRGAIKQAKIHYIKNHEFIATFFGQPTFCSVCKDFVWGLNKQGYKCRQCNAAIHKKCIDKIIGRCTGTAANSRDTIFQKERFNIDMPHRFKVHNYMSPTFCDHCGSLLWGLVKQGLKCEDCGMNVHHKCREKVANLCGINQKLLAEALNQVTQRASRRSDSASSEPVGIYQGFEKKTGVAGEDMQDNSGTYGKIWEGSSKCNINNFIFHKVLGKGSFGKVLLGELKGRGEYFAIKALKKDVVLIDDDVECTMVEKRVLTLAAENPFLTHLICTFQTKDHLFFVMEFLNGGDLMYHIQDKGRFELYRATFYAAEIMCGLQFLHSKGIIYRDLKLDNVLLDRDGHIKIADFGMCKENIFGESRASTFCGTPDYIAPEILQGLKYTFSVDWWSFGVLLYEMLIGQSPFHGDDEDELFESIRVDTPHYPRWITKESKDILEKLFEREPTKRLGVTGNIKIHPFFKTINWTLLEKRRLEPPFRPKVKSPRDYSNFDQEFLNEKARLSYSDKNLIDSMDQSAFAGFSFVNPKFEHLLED
# Chain of Mast/stem cell growth factor receptor Kit (Homo sapiens), P10721 [L576P] (P10721 whole entry L576P): as the sequence (P10721 whole entry) above, with L576P counted along it
smiles,measurement,setting,value
O=C(NOC[C@H](O)CO)c1ccc(F)c(F)c1Nc1ccc(I)cc1F,% of control,[1],82%
same,% of control,[2],78%
same,% of control,[3],78%
COc1cc(N(C)c2ccnc3ccc(C(F)(F)F)cc23)cc(OC)c1OC,% binding,[4],95%
CN(C)CCOc1ccc(-c2nc(-c3ccncc3)c(-c3ccc4c(c3)CC/C4=N\O)[nH]2)cc1,% of control,[5],86%
same,% of control,[6],100%
same,% of control,[7],58%
same,% of control,[8],93%
same,% of control,[9],93%
same,% of control,[10],75%
